One test concerns the target T1, Botulinum neurotoxin type E (Clostridium botulinum) (UniProt Q00496).
T1 sequence (whole entry): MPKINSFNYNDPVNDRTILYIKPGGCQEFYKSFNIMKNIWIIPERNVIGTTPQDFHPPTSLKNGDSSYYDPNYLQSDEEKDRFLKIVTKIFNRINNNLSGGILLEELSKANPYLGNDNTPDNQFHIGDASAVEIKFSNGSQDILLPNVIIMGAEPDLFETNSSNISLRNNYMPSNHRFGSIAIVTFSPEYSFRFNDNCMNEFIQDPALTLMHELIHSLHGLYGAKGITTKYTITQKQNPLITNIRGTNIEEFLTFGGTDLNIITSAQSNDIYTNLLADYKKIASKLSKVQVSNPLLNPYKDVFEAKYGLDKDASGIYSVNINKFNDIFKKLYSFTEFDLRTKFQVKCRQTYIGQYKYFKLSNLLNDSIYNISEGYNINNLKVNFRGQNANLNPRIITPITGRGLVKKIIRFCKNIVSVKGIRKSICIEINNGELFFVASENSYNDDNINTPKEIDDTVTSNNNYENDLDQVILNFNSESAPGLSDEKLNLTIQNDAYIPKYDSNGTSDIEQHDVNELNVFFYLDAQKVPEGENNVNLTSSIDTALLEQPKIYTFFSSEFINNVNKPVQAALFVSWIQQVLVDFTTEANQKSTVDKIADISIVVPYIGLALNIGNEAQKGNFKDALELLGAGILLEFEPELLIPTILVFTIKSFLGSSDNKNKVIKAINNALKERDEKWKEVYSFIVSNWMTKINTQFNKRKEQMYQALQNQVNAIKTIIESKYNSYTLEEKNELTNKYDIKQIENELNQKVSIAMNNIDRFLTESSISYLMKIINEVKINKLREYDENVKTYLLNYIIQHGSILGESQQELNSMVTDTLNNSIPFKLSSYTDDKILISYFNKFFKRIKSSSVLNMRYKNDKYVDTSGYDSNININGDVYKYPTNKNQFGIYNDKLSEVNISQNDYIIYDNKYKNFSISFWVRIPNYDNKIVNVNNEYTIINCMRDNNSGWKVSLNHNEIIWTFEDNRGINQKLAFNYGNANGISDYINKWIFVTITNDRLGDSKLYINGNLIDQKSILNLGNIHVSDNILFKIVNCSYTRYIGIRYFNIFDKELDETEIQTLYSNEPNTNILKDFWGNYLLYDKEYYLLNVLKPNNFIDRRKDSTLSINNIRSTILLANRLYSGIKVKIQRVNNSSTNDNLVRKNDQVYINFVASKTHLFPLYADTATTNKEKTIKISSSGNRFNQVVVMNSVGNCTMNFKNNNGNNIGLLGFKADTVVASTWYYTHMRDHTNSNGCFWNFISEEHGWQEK
Nature of the test: (§1) Inhibition of endopeptidase activity of Clostridium botulinum BoNT/E light chain using SNAP-25 as substrate after 15 mins by HPLC analysis.
Broadly, the inhibition is the drop in the measured response relative to a control, in per cent. In the case of `O=C(O)c1cc(Cl)ccc1-c1ccc(Cl)cc1C(=O)Nc1ccc2c(c1)Cc1cc(Cl)cc(Cl)c1-2`, the inhibition entry is “Dose-dependent effect”.

The next test has as its target T2, Botulinum neurotoxin type E (Clostridium botulinum, UniProt Q00496).
T2 sequence (Q00496 whole entry): T1 sequence (whole entry)
The description is as §1.
In general, IC50 refers to the concentration at which inhibition is half-maximal. Read a low IC50 as higher potency. In the case of `O=c1c2cc(Cl)ccc2c2ccc(Cl)cc2c(=O)n1-c1ccc2c(c1)Cc1cc(Cl)cc(Cl)c1-2`, the 50% inhibitory concentration (IC50) came to 9.8 µM.

Take `O=C(Nc1ccccc1)c1cc2cc3ccccc3cc2cc1O`: the IC50 was determined as 2.4 µM. Still for that read-out and setting: with `O=C(O)c1cc([N+](=O)[O-])ccc1-c1ccc([N+](=O)[O-])cc1C(=O)Nc1ccc2c(c1)Cc1ccccc1-2` the figure was 2.7 µM; with `O=C(O)c1cc(Cl)ccc1-c1ccc(Cl)cc1C(=O)Nc1ccc2c(c1)Cc1cc(Cl)cc(Cl)c1-2`, 3 µM. Same read-out and setting: to `O=C(O)c1cc(Cl)ccc1-c1ccc(Cl)cc1C(=O)Nc1ccc2c(c1)Cc1ccccc1-2` belongs 3.2 µM.

The next test has as its target T2, Botulinum neurotoxin type E. In words: Inhibition of protease activity of Clostridium botulinum BoNT/E light chain using SNAP-25 as substrate after 15 mins by Dixon plot analysis.
By Ki is commonly meant the dissociation constant of the complex between target and ligand, obtained from inhibition or displacement. A higher Ki goes with weaker binding. For the compound `O=C(O)c1ccccc1C(=O)c1ccc2c(c1)Cc1ccccc1-2`, the Ki amounted to 1.29 µM.

Another test concerns the target T1, Botulinum neurotoxin type E (Clostridium botulinum). In words: Inhibition of endopeptidase activity of Clostridium botulinum BoNT/E light chain using SNAP-25 as substrate at 20 uM after 15 mins by HPLC analysis.
Consider `O=C(O)/C=C/C(=O)Nc1ccc2c(c1)Cc1cc([N+](=O)[O-])ccc1-2`, for which the inhibition turned out to be 19.5%. Still for that read-out and setting: to `O=C(O)c1ccccc1C(=O)c1ccccc1` belongs 15.9%; to `O=C(O)c1ccccc1C(=O)c1ccc(Cl)cc1`, 0%; to `O=c1c2cc(Cl)ccc2c2ccc(Cl)cc2c(=O)n1-c1ccc2c(c1)Cc1cc(Cl)cc(Cl)c1-2`, 68.9%. Same read-out and setting: to `O=C(O)c1ccc(C(=O)c2ccccc2C(=O)O)cc1` belongs 13.7%; to `O=C(O)c1ccccc1C(=O)c1ccc2c(c1)CCC2`, 16.3%. `O=C(Nc1ccccc1)c1cc2cc3ccccc3cc2cc1O` had an inhibition of 70.1%. On the same count and under the same terms, to `O=C1c2ccccc2-c2ccc(NC(=O)C3CCCCC3C(=O)O)cc21` (centres undefined) belongs 18.3%; to `O=C(O)c1ccccc1-c1ccccc1C(=O)Nc1ccc2c(c1)Cc1ccccc1-2`, 37.2%. Same read-out and setting: to `O=C(Nc1ccc2c(c1)C(=O)c1ccccc1-2)c1ccccc1` belongs 12.7%; to `Cc1cc2c(cc1C(=O)c1ccccc1C(=O)O)CCCC2`, 24.8%. On the same count and under the same terms, to `O=C(O)c1cc([N+](=O)[O-])ccc1-c1ccc([N+](=O)[O-])cc1C(=O)Nc1ccc2c(c1)Cc1ccccc1-2` belongs 82%; to `COc1ccc2c(c1)Cc1cc(NC(=O)c3ccccc3-c3ccccc3C(=O)O)ccc1-2`, 20.9%; to `O=C(O)C1CCCCC1C(=O)Nc1ccc2c(c1)Cc1ccccc1-2` (centres undefined), 12%. With `O=C(O)c1ccccc1C(=O)c1ccc(O)cc1O`, the inhibition was 14.7%.

In turn, `O=C(O)c1cc(Cl)ccc1-c1ccc(Cl)cc1C(=O)Nc1ccc2c(c1)Cc1cc(Cl)cc(Cl)c1-2` displayed an inhibition of 79.1%. Still for that read-out and setting: to `O=C(O)c1ccccc1C(=O)Nc1ccc2c(c1)C(=O)c1ccccc1-2` belongs 14.8%; to `Cc1cccc(C)c1NC(=S)NNC(=O)c1ccncc1`, 28%; to `O=C(O)c1ccccc1-c1ccccc1C(=O)Nc1ccc2c(c1)C(O)c1ccccc1-2` (centres undefined), 20%. Still for that read-out and setting: to `O=C(O)c1ccccc1C(=O)c1ccc2oc(O)nc2c1` belongs 35%. Regarding `O=C(O)c1ccccc1C(=O)c1ccc2c3c(cccc13)CC2`, the inhibition stood at 11.5%. On the same count and under the same terms, to `c1ccc2c(c1)Cc1ccccc1-2` belongs 17.3%; to `O=C(O)c1ccccc1-c1ccccc1C(=O)Nc1ccc2c(c1)Cc1cc(F)ccc1-2`, 47.6%. Same read-out and setting: with `O=C(O)c1ccccc1C(=O)c1cc(Cl)cc(Cl)c1O` the figure was 19.2%. On the same count and under the same terms, to `O=C1c2ccccc2-c2cc(Br)c(NC(=O)C3CCCCC3C(=O)O)cc21` (centres undefined) belongs 19.3%. Turning to `O=c1c2cc([N+](=O)[O-])ccc2c2ccc([N+](=O)[O-])cc2c(=O)n1-c1ccc2c(c1)Cc1ccccc1-2`, the inhibition came to 24.7%. The same measure, in the same setting: to `O=C(O)c1ccccc1C(=O)Nc1cc2c(cc1Br)-c1ccccc1C2=O` belongs 26.2%; to `O=C(O)c1ccccc1C(=O)c1ccc(-c2ccccc2)cc1`, 37.8%. Still for that read-out and setting: with `O=C(O)c1ccccc1-c1ccccc1C(=O)Nc1ccc2c(c1)C(=O)c1ccccc1-2` the figure was 20.2%; with `CNc1ccc(C(=O)c2ccccc2C(=O)O)cc1[N+](=O)[O-]`, 14.1%.

As to `O=C(O)c1cccc(F)c1C(=O)c1ccc2ccccc2c1`, the inhibition amounted to 43.9%. On to `CC(=O)Nc1cc2c(cc1N)-c1ccccc1C2`, for which the inhibition came out at 13.7%. The compound `O=C(O)c1ccccc1C(=O)CCC(=O)c1ccccc1C(=O)O` yielded an inhibition of 21.2%.

Take `O=c1c2cc(Cl)ccc2c2ccc(Cl)cc2c(=O)n1-c1ccc2c(c1)Cc1ccccc1-2`: the inhibition was 48%. Same read-out and setting: with `O=C(NNC(=S)Nc1ccccc1Cl)c1ccncc1` the figure was 19%.

As to `O=C(O)c1ccccc1C(=O)c1ccc2c(c1)Cc1ccccc1-2`, the inhibition stood at 80.1%. The same measure, in the same setting: to `O=C(O)c1cc(Cl)ccc1-c1ccc(Cl)cc1C(=O)Nc1ccc2c(c1)Cc1ccccc1-2` belongs 88.3%.

For the origin of these results see ChEMBL document CHEMBL3826967, “Small molecule non-peptide inhibitors of botulinum neurotoxin serotype E: Structure-activity relationship and a pharmacophore model” (Bioorg Med Chem, 2016).
